The source of these data is paper PMC12320693, “Non-edible onion skin waste as a source of bioactive agents for functional foods development: Chemical composition and multifunctional bioactivity” (Food Chemistry: X, 2025).

Structures are written as SMILES. In brackets after ≈: the same amount, converted by molar mass. Read-outs that look alike come from different tables or passages of the source.

Assay [1] in a line: Nitric oxide radical scavenging activity. It counts as biochemical. The protocol: The capacity of the onion skin extracts to scavenge the nitric oxide (^●NO) radical was assessed using the method described by [Ferreres et al. (2021)]. This involved mixing 100 μL of the extract solutions, diluted in 0.1 M phosphate buffer (pH 7.4), with the same volume of 20 mM sodium nitroprusside dihydrate. After a 60 min incubation under light, the Griess reagent (100 μL) was added, followed by 10 min incubation in the dark, and absorbance was measured at 560 nm. Quercetin was used as positive control. At least five different concentrations were tested for each onion skin extract, with a minimum of three independent experiments conducted in triplicate. A control was prepared replacing sample with buffer, and a blank with phosphoric acid instead of the Griess reagent.

Assay [2] can be described thus: Superoxide anion radical scavenging activity. It is filed as biochemical. Here is the method:
The ability of the onion skin extracts to scavenge the superoxide anion (O2^●-) radical was determined according to [Ferreres et al. (2021)]. Equal volumes (50 μL) of the extract solutions, diluted in 19 mM phosphate buffer (pH 7.4), and 0.166 mM NADH, and three volumes of 0.043 mM nitrotetrazolium blue chloride were combined. The reaction was initiated by adding 50 μL of 2.7 μM phenazine methosulfate, and absorbance was recorded at 560 nm. A control was prepared substituting sample with buffer.

A further assay concerns the target T1, α-glucosidase (Saccharomyces cerevisiae, UniProt P53341).
T1 construct: purchased Sigma-Aldrich (St. Louis, MO, USA)
The assay can be described thus: α-Glucosidase activity assay (pure enzyme). It counts as biochemical.

A further assay addresses T2, 5-LOX (lipoxygenase) (Glycine max, UniProt P08170).
T2 construct: purchased Sigma-Aldrich (St. Louis, MO, USA)
The assay can be described thus: Lipoxygenase (5-LOX) activity assay. It counts as biochemical, Glycine max (soybean).

Another assay concerns the target T3, xanthine oxidase (Bos taurus, UniProt P80457).
T3 construct: purchased Sigma-Aldrich (St. Louis, MO, USA); host or cells: bovine milk
The assay can be described thus: Xanthine oxidase inhibition assay. It is filed as biochemical.

The target in another assay is T4, acetylcholinesterase (Electrophorus electricus, UniProt O42275).
T4 construct: purchased Sigma-Aldrich (St. Louis, MO, USA)
The assay can be described thus: Acetylcholinesterase (AChE) inhibition assay. It is filed as biochemical.

Assay [3] deals with Candida albicans (ATCC 10231). The assay can be described thus: Antifungal activity, Candida albicans. It counts as cell-based. The protocol:
(§1) Three yeast strains (Candida albicans (ATCC 10231), Candida krusei (ATCC 6258), and Cryptococcus neoformans (CECT1078)) and filamentous fungi (one Aspergillus fumigatus (ATCC 204305) and three dermatophytes (Trichophyton rubrum (FF5), Nannizzia gypsea (formerly Microsporum gypseum-FF3) and Epidermophyton floccosum (FF9)) were used in this work. Sub-cultures were prepared in Sabouraud Dextrose Agar medium (SDA) from 1–2 days (yeasts and Aspergillus) to 5–7 days (dermatophytes) to ensure optimal growth conditions and purity.
(§2) Fungal organisms were cultured in SDA and then suspended in RPMI-1640 broth. Serial dilutions of the onion skin extract solutions, prepared from a stock solution (8 mg/mL in DMSO), were prepared in RPMI-1640 broth, starting at a concentration of 4 mg/mL. Sample dilutions and cell suspensions were distributed into 96 well plates and incubated under aerobic, humid conditions at 26 °C for dermatophytes and 36 °C for the other organisms. Incubation times were 5 to 7 days for dermatophytes, 72 h for C. neoformans, and 48 h for the remaining organisms. […] In cases where MIC was determined, 20 μL from wells without visible growth were cultured on SDA plates, incubating under the same conditions previously described for each organism. The Minimal Fungicidal Concentration (MFC) was then determined as the lowest concentration where complete no growth was observed on the SDA plates. All the experiments were conducted in triplicate.

For assay [4], the system named is Candida krusei (ATCC 6258). As to the kind of experiment: Antifungal activity, Candida krusei. It is filed as cell-based. As to conditions: Pichia kudriavzevii, ATCC6258. The protocol:
as §1, §2

Assay [5] has as its system Cryptococcus neoformans (CECT1078). As to the kind of experiment: Antifungal activity, Cryptococcus neoformans. It counts as cell-based. Here is the method: as §1, §2
Assay [6] relates to Aspergillus fumigatus (ATCC 204305). The assay can be described thus: Antifungal activity, Aspergillus fumigatus. It counts as cell-based. Here is the method:
as §1, §2

Assay [7] deals with Trichophyton rubrum (FF5). The assay can be described thus: Antifungal activity, Trichophyton rubrum. It is filed as cell-based. Here is the method:
as §1, §2

In assay [8] the test system is Nannizzia gypsea (formerly Microsporum gypseum-FF3). The assay can be described thus: Antifungal activity, Nannizzia gypsea. It counts as cell-based. Here is the method:
as §1, §2

The test system of assay [9] is Epidermophyton floccosum (FF9). As to the kind of experiment: Antifungal activity, Epidermophyton floccosum. It is filed as cell-based. The protocol:
as §1, §2

The conditions of assay [10]: ref Yuting et al., 1990; cited from earlier work.
Details of assay [11]: method as in Li et al., 2011. The following applies: ref Li et al., 2011; cited from earlier work.
On the set-up of assay [12]: method as in Li et al., 2011. The following applies: ref Li et al., 2011; cited from earlier work. This is another data set of the same source.
On the set-up of assay [13]: method as in Li et al., 2011. As to conditions: ref Li et al., 2011; cited from earlier work. The source holds these as a separate data set.
The test system of assay [14] is NO production in LPS-induced BV-2 cells. More on the design: method as in Sun et al., 2015. As to conditions: ref Sun et al., 2015; cited from earlier work.
The mark [15] stands for this setting: 100 % growth inhibition, read-out: MIC.

T3 sequence (P80457 whole entry): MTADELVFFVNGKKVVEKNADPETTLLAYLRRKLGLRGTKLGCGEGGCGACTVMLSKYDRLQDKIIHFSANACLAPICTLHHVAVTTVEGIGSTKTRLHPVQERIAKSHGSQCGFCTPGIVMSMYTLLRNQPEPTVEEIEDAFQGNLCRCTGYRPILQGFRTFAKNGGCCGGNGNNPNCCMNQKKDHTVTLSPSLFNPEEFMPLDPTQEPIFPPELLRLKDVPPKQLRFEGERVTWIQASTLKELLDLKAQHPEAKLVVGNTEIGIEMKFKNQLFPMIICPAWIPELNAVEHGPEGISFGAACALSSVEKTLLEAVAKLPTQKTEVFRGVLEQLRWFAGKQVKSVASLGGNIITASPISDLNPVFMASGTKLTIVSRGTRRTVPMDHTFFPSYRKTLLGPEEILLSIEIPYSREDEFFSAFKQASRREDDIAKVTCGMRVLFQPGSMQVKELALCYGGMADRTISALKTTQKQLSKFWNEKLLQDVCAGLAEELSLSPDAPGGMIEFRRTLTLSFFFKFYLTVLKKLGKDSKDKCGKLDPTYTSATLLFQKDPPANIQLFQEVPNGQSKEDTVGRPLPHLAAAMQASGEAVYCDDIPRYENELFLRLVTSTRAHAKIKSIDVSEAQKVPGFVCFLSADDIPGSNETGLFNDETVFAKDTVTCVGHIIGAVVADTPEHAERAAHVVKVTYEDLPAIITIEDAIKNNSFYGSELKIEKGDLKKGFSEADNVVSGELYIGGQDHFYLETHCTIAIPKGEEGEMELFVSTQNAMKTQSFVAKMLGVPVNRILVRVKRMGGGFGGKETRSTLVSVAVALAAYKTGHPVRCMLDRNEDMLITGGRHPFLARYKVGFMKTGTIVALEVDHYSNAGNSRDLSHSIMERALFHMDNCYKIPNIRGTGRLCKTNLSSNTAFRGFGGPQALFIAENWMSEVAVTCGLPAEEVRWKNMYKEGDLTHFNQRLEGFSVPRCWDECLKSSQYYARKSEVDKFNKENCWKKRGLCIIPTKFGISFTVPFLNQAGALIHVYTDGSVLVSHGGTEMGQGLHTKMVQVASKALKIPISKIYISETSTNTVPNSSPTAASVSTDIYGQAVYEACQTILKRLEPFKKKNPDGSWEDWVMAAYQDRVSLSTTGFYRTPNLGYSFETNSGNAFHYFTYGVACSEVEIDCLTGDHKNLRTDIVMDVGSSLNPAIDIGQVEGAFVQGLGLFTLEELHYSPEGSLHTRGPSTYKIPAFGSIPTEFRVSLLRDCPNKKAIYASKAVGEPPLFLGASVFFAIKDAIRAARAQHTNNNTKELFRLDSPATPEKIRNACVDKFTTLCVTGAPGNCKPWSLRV
T2 sequence (P08170 whole entry): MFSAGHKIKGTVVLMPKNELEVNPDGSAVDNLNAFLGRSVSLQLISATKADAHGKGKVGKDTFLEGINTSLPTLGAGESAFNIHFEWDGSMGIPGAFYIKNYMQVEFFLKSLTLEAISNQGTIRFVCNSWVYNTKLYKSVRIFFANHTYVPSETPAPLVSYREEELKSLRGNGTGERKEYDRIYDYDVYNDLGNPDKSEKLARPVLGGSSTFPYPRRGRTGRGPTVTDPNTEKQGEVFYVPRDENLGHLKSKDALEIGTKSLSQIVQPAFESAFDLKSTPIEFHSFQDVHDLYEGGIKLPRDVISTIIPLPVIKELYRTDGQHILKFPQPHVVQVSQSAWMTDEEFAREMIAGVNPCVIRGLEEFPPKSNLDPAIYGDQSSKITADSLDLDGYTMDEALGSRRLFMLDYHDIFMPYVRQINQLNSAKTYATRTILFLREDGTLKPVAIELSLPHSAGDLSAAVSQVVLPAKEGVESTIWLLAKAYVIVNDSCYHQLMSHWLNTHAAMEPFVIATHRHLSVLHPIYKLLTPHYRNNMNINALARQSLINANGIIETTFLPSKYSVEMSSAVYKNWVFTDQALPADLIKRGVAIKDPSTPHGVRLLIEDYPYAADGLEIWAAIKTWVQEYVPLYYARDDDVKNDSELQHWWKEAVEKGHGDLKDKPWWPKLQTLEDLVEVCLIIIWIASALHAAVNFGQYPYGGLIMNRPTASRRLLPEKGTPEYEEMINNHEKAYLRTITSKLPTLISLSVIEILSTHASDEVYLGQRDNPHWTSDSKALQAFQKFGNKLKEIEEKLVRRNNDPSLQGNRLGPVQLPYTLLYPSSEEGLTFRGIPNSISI
T4 sequence (O42275 24-633): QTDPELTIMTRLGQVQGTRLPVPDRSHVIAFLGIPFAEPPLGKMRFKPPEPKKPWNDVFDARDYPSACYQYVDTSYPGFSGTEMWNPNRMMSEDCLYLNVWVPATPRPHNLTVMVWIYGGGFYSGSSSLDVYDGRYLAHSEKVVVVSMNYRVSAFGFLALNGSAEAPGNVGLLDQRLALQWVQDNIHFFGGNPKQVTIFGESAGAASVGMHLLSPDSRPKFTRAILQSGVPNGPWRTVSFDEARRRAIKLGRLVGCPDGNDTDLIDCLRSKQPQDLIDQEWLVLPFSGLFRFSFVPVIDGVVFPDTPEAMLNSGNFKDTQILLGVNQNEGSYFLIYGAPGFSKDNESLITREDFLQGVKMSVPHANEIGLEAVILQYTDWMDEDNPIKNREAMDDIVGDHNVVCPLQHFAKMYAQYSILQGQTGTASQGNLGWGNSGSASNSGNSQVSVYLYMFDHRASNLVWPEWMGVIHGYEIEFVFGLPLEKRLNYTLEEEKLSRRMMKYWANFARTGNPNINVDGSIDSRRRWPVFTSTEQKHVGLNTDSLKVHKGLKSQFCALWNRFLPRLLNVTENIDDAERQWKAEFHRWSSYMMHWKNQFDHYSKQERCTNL
T1 sequence (P53341 whole entry): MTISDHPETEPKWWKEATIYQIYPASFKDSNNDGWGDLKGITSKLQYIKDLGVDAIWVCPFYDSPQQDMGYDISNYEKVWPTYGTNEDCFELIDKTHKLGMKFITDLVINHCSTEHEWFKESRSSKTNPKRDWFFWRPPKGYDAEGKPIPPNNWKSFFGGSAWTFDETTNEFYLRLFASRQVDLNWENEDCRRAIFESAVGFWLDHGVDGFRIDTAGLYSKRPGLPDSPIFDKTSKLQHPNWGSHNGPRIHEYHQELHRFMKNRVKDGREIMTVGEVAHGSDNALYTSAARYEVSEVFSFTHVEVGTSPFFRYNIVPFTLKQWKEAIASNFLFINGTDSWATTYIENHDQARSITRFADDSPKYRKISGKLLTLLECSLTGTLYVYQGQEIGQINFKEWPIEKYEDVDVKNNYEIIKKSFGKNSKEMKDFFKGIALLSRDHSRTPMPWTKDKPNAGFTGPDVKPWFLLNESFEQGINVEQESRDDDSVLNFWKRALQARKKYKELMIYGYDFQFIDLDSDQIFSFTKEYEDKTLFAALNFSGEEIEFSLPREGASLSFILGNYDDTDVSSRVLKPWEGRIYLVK
Method for 5-LOX (lipoxygenase): The ability of the extracts and pure compounds to inhibit 5-LOX activity was assessed by measuring their capacity to prevent linoleic oxidation. In short, 200 μL of the extract solutions, diluted in 100 mM phosphate buffer (pH 9.0), was mixed with 20 μL of the enzyme solution and 20 μL of 4.18 mM linoleic acid prepared in ethanol, and the absorbance at 234 nm was measured. A control was prepared with buffer instead of sample ([Trigueros, Oliveira, et al., 2024]).
Method for acetylcholinesterase: Acetylcholinesterase activity was assessed combining 75 μL of the extract solutions, prepared in 50 mM Tris-HCl buffer (pH 8.0), plus 0.1 % (w/v) albumin, with 25 μL of 15 mM ATCI and 125 μL of 3 mM DTNB. The formation of 5-thio-2-nitrobenzoate was monitored at 405 nm ([Trigueros, Oliveira, et al., 2024]).
Method for xanthine oxidase: Xanthine oxidase activity was determined using a previously established method by monitoring the conversion of xanthine to uric acid ([Trigueros, Oliveira, et al., 2024]). 200 μL of the extract solutions, diluted in 5 mM phosphate buffer (pH 7.4), was mixed with 10 μL of xanthine oxidase solution, incubated for 5 min at 37 °C, followed by the addition of 40 μL of 1.25 mM xanthine solution, and absorbance was measured at 295 nm. A control assay was prepared with buffer.
Method for α-glucosidase: Enzymes for in vitro enzymatic assays were aldose-reductase (Homo sapiens, human) from Prozomix (UK), α-amylase (porcine pancreas), α-glucosidase (Saccharomyces cerevisiae), acetylcholinesterase from Electrophorus electricus, lipoxygenase from Glycine max (soybean), tyrosinase from mushroom, xanthine oxidase from bovine milk, all provided by Sigma-Aldrich (St. Louis, MO, USA).
α-Glucosidase activity was evaluated incubating 180 μL of a mixture of the extract solutions, prepared in 10 mM potassium phosphate buffer (pH 7.0), and 20 μL of the enzyme solution at 37 °C for 2 min. Absorbance at 405 nm was measured after adding 100 μL of 2.5 mM 4-nitrophenyl-α-D-glucopyranoside, and after 10 min incubation.

The IC50 is the point on the concentration scale where inhibition reaches its midpoint. A lower IC50 goes with greater potency. What is called MFC is the lowest tested concentration that kills the fungus rather than only halting it. Broadly, the MIC is the smallest concentration in the dilution series that meets the test's criterion for growth inhibition. Regarding `O=C(O)c1ccc(O)c(O)c1` [Protocatechuic acid], the “IC25, ●NO scavenging” value in [1] was 237 ± 16 µg/mL (≈ 1.54 mM). In addition, in assay [1] (at the maximum tested concentration (1.33 mg/mL)), the “●NO scavenging activity” value is given as “below 40%”. For the same compound, the “IC50, O2●- scavenging” value is 252 ± 8 µg/mL (≈ 1.64 mM) in [2] and 310 µg/mL (≈ 2.01 mM) in [10]. Further, the IC50 on α-glucosidase is 2760 µM; at 5-LOX (lipoxygenase) it was 247 µM; against xanthine oxidase it was 908 µM. For the same compound, the “IC25, AChE” value against acetylcholinesterase turned out to be 1809 ± 31 µg/mL (≈ 11.7 mM). The MFC in [3] (ATCC10231) is over 4000 µg/mL; in [4], over 4000 µg/mL; in assay [5] (CECT1078), 2000 µg/mL (≈ 13 mM); in assay [6] (ATCC204305), over 4000 µg/mL; in assay [7], 2000 µg/mL (≈ 13 mM); in assay [8] it was over 4000 µg/mL. Besides, the minimum fungicidal concentration (MFC) in assay [9] stood at 2000 µg/mL (≈ 13 mM). In addition, the MIC in [3] (ATCC10231) was over 4000 µg/mL; in assay [4], over 4000 µg/mL; in assay [5] (CECT1078, read-out: MIC, ≥ 95 % growth inhibition), 1000 µg/mL (≈ 6.49 mM); in [6] (ATCC204305) it was over 4000 µg/mL; in [7] it was 2000 µg/mL (≈ 13 mM); in assay [7] (read-out: MIC, 90 % growth inhibition) it was 1000 µg/mL (≈ 6.49 mM). Besides, the MIC in assay [8] is over 4000 µg/mL; in assay [9], 500 µg/mL (≈ 3.24 mM). Further, the “IC50, DPPH” value in assay [11] was 1.88 µg/mL (≈ 0.0122 mM). Besides, the “IC50, ABTS” value in assay [12] was 0.89 µg/mL (≈ 0.00577 mM). The “IC50, hydroxyl radicals” value in [13] was 74 µg/mL (≈ 0.48 mM).
Consider `O=c1c(O)c(-c2ccc(O)c(O)c2)oc2cc(O)cc(O)c12` [Quercetin], for which, in assay [1], the “IC50, ●NO scavenging” value turned out to be 49 ± 2 µg/mL (≈ 0.162 mM). Moreover, in assay [2], the “IC50, O2●- scavenging” value was 22.4 ± 1.1 µg/mL (≈ 0.0741 mM). The MIC in assay [3] (ATCC10231, 100 % growth inhibition, read-out: MIC) is over 4000 µg/mL; in assay [4] (Candida krusei, 100 % growth inhibition, read-out: MIC) it was at least 4000 µg/mL; in assay [5] (CECT1078, 100 % growth inhibition, read-out: MIC), 1000 µg/mL (≈ 3.31 mM); in assay [5] (CECT1078, read-out: MIC, 90 % growth inhibition, 90 %) it was 750 µg/mL (≈ 2.48 mM); in assay [6] (ATCC204305, 100 % growth inhibition, read-out: MIC) it was over 4000 µg/mL; in [7] (setting [15]) it was 1000 µg/mL (≈ 3.31 mM). The figures for the MIC in [8] (setting [15]) and in assay [9] (setting [15]) were over 4000 µg/mL and 500 µg/mL (≈ 1.65 mM), respectively. Also, the MFC in assay [3] (ATCC10231, read-out: MFC) is over 4000 µg/mL; in assay [4] (Candida krusei, read-out: MFC) it was over 4000 µg/mL; in assay [5] (CECT1078, read-out: MFC) it was 2000 µg/mL (≈ 6.62 mM); in assay [6] (ATCC204305, read-out: MFC) it was over 4000 µg/mL; in assay [7] (read-out: MFC) it was 1000 µg/mL (≈ 3.31 mM); in assay [8] (read-out: MFC), over 4000 µg/mL. The minimum fungicidal concentration (MFC) in assay [9] (read-out: MFC) stood at 1000 µg/mL (≈ 3.31 mM). Further, the “concentrations effectively reducing NO production” value in assay [14] is given as “above 5 μM”.
